Measurements reported in patent US20250134875A1, “FORMULATIONS OF ALK-5 KINASE INHIBITORS AND USES THEREOF” (Thirona Bio, Inc., priority 2023, published 2025).
In brackets after ≈: the same amount, converted by molar mass.

How the values were obtained:
[1] = Solubility of Compound 1 in solvents; format: physicochemical
Description: Tables 2 and 3 provide the solubility of the exemplary ALK-5 kinase inhibitor Compound 1 in various solvents.

[2] = Excipient compatibility / stability study (HPLC, 2 weeks); format: physicochemical; details: for Loss of Compound 1 on storage / Stability conclusion: 2 weeks; for Stability conclusion: RT, 40 and 50° C.
Procedure: Stability studies were conducted to evaluate compatibility and stability of Compound 1 with some of the excipients included in the solubility experiments. The stability was assessed using the validated API HPLC method after storage at room temperature (RT), 40° C. and 50° C. for 2 weeks. The summary of the data generated from these experiments is provided below in Table 6 below.

[3] = system: surgical incision-induced dermal fibrosis; assay: Surgical incision-induced dermal fibrosis model: clinical signs, visual assessment, histology; format: in vivo, Göttingen minipig
Procedure: (§1) . Therefore, a model of surgical incision-induced dermal fibrosis was established in minipigs and the effects of topical Compound 1 were evaluated by visual assessment, histologic examination and gene expression by RNA sequencing.
The study was conducted in 4 female Göttingen SPF minipigs. On Day 1, eight full thickness incisional wounds, four on each side, were performed on each animal. […]. All animals received a dose volume of 160 μl per wound ([…] applied to a 32 cm2 area surrounding each incision). Clinical signs, visual observations of incisions, body weight and food consumption were recorded during the in-life period. At necropsy (Day 21) two biopsies were collected from each incision for histopathology and gene expression analysis.
For histopathology, a 0.8 cm punch biopsy was collected from the incisional wounds. The biopsies were divided into two, diagonal to the incisional wound. All biopsies were individually fixed in phosphate buffered neutral 4% formaldehyde. Following fixation, all incisional wound biopsies collected for microscopic examination were trimmed and processed. The specimens were embedded in paraffin and cut at a nominal thickness of approximately […], stained with haematoxylin and eosin, and examined by light microscopy.

[4] = Solubility assessment in solvent and excipient systems (formulated systems); format: physicochemical; details: 25° C.
Description: Table 5 provides the solubility of Compound 1 in various solvents and excipient systems to analyze the topical systems to be utilized with the formulations.

profibrotic genes = assay: Gene expression (RNA sequencing) in surgical incision-induced dermal fibrosis model; format: in vivo, Göttingen minipig
Procedure: as §1, with “Minipig skin is more similar to human skin than rodent skin, and dermal delivery of topical ALK-5 kinase inhibitor Compound 1 in minipigs is expected to be reflective of treatment of human skin. Therefore,” for “. Therefore,”
The study was conducted in 4 female Göttingen SPF minipigs. On Day 1, eight full thickness incisional wounds, four on each side, were performed on each animal. Compound 1 0% (Vehicle), 0.1%, 0.3% or 1% was applied topically twice daily for 14 days from Day 7 through Day 20 on each incision. All animals received a dose volume of 160 μl per wound ([…] applied to a 32 cm2 area surrounding each incision). Clinical signs, visual observations of incisions, body weight and food consumption were recorded during the in-life period. At necropsy (Day 21) two biopsies were collected from each incision for histopathology and gene expression analysis.
For gene expression analysis, a 0.3 cm punch biopsy was collected from the incisional wounds. Samples were collected and stored overnight in prefilled tubes containing RNAlater at 5±3° C., and then transferred to a freezer and stored at ˜−20° C. The biopsies collected were then thawed and subjected to RNA purification and then generation of mRNA-enriched cDNA libraries for Illumina sequencing. RNA sequencing was performed to a depth of ˜15 million reads followed by bioinformatic analysis, including differential gene expression analysis.

[5] = topical 0.1%, 0.3% or 1% twice daily Day 7-20, biopsy Day 21

solubility ([1]; Cycolmethicone NF, oil or lipid): 190 µg/mL (≈ 0.62 mM)
solubility ([1]; DMSO, organic solvent or mixture): 83700 µg/mL (≈ 273 mM)
solubility ([1]; Dimethicone 100 CST, oil or lipid): 110 µg/mL (≈ 0.359 mM)
solubility ([1]; PEG 400, organic solvent or mixture): 43900 µg/mL (≈ 143 mM)
solubility ([1]; PPG-15 stearyl ether, oil or lipid): 4870 µg/mL (≈ 15.9 mM)
solubility ([1]; Transcutol (DEGEE), organic solvent or mixture): 115000 µg/mL (≈ 376 mM)
solubility ([1]; acetone, organic solvent or mixture): 38300 µg/mL (≈ 125 mM)
solubility ([1]; benzyl alcohol, organic solvent or mixture): > 300000 µg/mL
solubility ([1]; diethyl sebacate, oil or lipid): 13100 µg/mL (≈ 42.6 mM)
solubility ([1]; diisopropyl adipate, oil or lipid): 50500 µg/mL (≈ 165 mM)
solubility ([1]; ethanol, organic solvent or mixture): 30800 µg/mL (≈ 101 mM)
solubility ([1]; hexylene glycol, organic solvent or mixture): 50200 µg/mL (≈ 164 mM)
solubility ([1]; isopropyl myristate, oil or lipid): 3450 µg/mL (≈ 11.3 mM)
solubility ([1]; medium chain triglycerides, oil or lipid): 5310 µg/mL (≈ 17.3 mM)
solubility ([1]; mineral oil, oil or lipid): 540 µg/mL (≈ 1.76 mM)
solubility ([1]; octyldodecanol, oil or lipid): 5370 µg/mL (≈ 17.5 mM)
solubility ([1]; organic solvent or mixture, Propylene Glycol (PG)): 23700 µg/mL (≈ 77.4 mM)
solubility ([1]; phenethyl alcohol, organic solvent or mixture): > 300000 µg/mL
solubility ([1]; phosphate buffer, pH 6.5, aqueous buffer): 20 µg/mL (≈ 0.0653 mM)
solubility ([1]; propylene carbonate, organic solvent or mixture): 24100 µg/mL (≈ 78.7 mM)
solubility ([1]; sodium citrate buffer, pH 3, aqueous buffer, Sod.Citrate buffer (pH3)): 2190 µg/mL (≈ 7.15 mM)
solubility ([1]; sodium citrate buffer, pH 4, aqueous buffer, Sod.Citrate buffer (pH4)): 290 µg/mL (≈ 0.946 mM)
solubility ([1]; sodium citrate buffer, pH 5, aqueous buffer, Sod.Citrate buffer (pH5)): 70 µg/mL (≈ 0.228 mM)
solubility ([1]; water): 20 µg/mL (≈ 0.0653 mM)
Loss of Compound 1 on storage ([2]; Benzyl Alcohol +0.1% BHT, 40° C.): No Loss
Loss of Compound 1 on storage ([2]; Benzyl Alcohol +0.1% BHT, 50° C.): No Loss
Loss of Compound 1 on storage ([2]; Benzyl Alcohol +0.1% BHT, RT storage): No Loss
Stability conclusion ([2]; Benzyl Alcohol +0.1% BHT): STABLE AT ALL
Loss of Compound 1 on storage ([2]; Benzyl Alcohol, 40° C.): No Loss
Loss of Compound 1 on storage ([2]; Benzyl Alcohol, 50° C.): No Loss
Loss of Compound 1 on storage ([2]; Benzyl Alcohol, RT storage): No Loss
Stability conclusion ([2]; Benzyl Alcohol): STABLE AT ALL
Loss of Compound 1 on storage ([2]; Diethyl Sebacate, 40° C.): 3-4% loss
Loss of Compound 1 on storage ([2]; Diethyl Sebacate, 50° C.): 6% loss
Loss of Compound 1 on storage ([2]; Diethyl Sebacate, RT storage): No Loss
Stability conclusion ([2]; Diethyl Sebacate): Some Instability
Loss of Compound 1 on storage ([2]; PEG 400 + 0.1% BHT, 40° C.): No Loss
Loss of Compound 1 on storage ([2]; PEG 400 + 0.1% BHT, 50° C.): No Loss
Loss of Compound 1 on storage ([2]; PEG 400 + 0.1% BHT, RT storage): No Loss
Loss of Compound 1 on storage ([2]; PEG 400, 40° C.): 10% loss
Loss of Compound 1 on storage ([2]; PEG 400, 50° C.): ~28% loss
Loss of Compound 1 on storage ([2]; PEG 400, RT storage): No Loss
Stability conclusion ([2]; PEG 400): Unstable at > RT
Loss of Compound 1 on storage ([2]; Phenoxyethanol +0.1% BHT, 40° C.): No Loss
Loss of Compound 1 on storage ([2]; Phenoxyethanol +0.1% BHT, 50° C.): No Loss
Loss of Compound 1 on storage ([2]; Phenoxyethanol +0.1% BHT, RT storage): No Loss
Stability conclusion ([2]; Phenoxyethanol +0.1% BHT): STABLE AT ALL
Loss of Compound 1 on storage ([2]; Phenoxyethanol, 40° C.): No Loss
Loss of Compound 1 on storage ([2]; Phenoxyethanol, 50° C.): No Loss
Loss of Compound 1 on storage ([2]; Phenoxyethanol, RT storage): No Loss
Stability conclusion ([2]; Phenoxyethanol): STABLE AT ALL
Loss of Compound 1 on storage ([2]; Propylene Glycol, 40° C.): No Loss
Loss of Compound 1 on storage ([2]; Propylene Glycol, 50° C.): No Loss
Loss of Compound 1 on storage ([2]; Propylene Glycol, RT storage): No Loss
Stability conclusion ([2]; Propylene Glycol): STABLE AT ALL
Loss of Compound 1 on storage ([2]; Transcutol (DEGEE) +0.1% BHT, 40° C.): No Loss
Loss of Compound 1 on storage ([2]; Transcutol (DEGEE) +0.1% BHT, 50° C.): No Loss
Loss of Compound 1 on storage ([2]; Transcutol (DEGEE) +0.1% BHT, RT storage): No Loss
Stability conclusion ([2]; Transcutol (DEGEE) +0.1% BHT): STABLE AT ALL
Loss of Compound 1 on storage ([2]; Transcutol (DEGEE), 40° C.): No Loss
Loss of Compound 1 on storage ([2]; Transcutol (DEGEE), 50° C.): No Loss
Loss of Compound 1 on storage ([2]; Transcutol (DEGEE), RT storage): No Loss
Stability conclusion ([2]; Transcutol (DEGEE)): STABLE AT ALL
Loss of Compound 1 on storage ([2]; pH 3 Citrate buffer, 40° C.): No Loss
Loss of Compound 1 on storage ([2]; pH 3 Citrate buffer, 50° C.): No Loss
Loss of Compound 1 on storage ([2]; pH 3 Citrate buffer, RT storage): No Loss
Stability conclusion ([2]; pH 3 Citrate buffer): STABLE AT ALL
Loss of Compound 1 on storage ([2]; pH4 Citrate buffer, 40° C.): No Loss
Loss of Compound 1 on storage ([2]; pH4 Citrate buffer, 50° C.): No Loss
Loss of Compound 1 on storage ([2]; pH4 Citrate buffer, RT storage): No Loss
Stability conclusion ([2]; pH4 Citrate buffer): STABLE AT ALL
Loss of Compound 1 on storage ([2]; pH5 Citrate buffer, 40° C.): No Loss
Loss of Compound 1 on storage ([2]; pH5 Citrate buffer, 50° C.): No Loss
Loss of Compound 1 on storage ([2]; pH5 Citrate buffer, RT storage): No Loss
Stability conclusion ([2]; pH5 Citrate buffer): STABLE AT ALL
Wound healing (histology: new collagen, re-epithelialisation) ([3]; Day 21): wound healing was not compromised
Max solubility of Compound 1 ([4]; Aqueous Gels, aqueous component 10-30% w/w): 1-2.7%/w
Max solubility of Compound 1 ([4]; Creams & Lotions, aqueous component 30-40% w/w): 1-1.5%/w
Max solubility of Compound 1 ([4]; Non-Aqueous Gels & Film forming solutions, aqueous component 0.0% w/w): 3-3.5%/w
SMILES: Cc1cccc(-n2ncc(C)c2-c2cc3cnccc3s2)n1 [Compound 1]
Stability of Compound 1 with excipients (summary) ([2]; solubility and compatibility experiments): relatively stable except with PEG400 and Diethyl Sebacate
Adverse clinical signs ([3]; in-life period, topical 0.1%, 0.3% or 1% twice daily for 14 days): No adverse clinical signs
Fibrosis (gene expression and histology data) ([3]; topical administration): inhibits fibrosis
Gene expression of the profibrotic genes investigated (profibrotic genes; FIG. 7): consistent tendency to dose-dependently reduce gene expression
Change in gene expression, ADAM12 (profibrotic genes; [5]): −52%
Change in gene expression, ADAMTS14 (profibrotic genes; [5]): −52%
Change in gene expression, BMP1 (profibrotic genes; [5]): −47%
Change in gene expression, COL1A1 (profibrotic genes; [5]): −49%
Change in gene expression, COL1A2 (profibrotic genes; [5]): −48%
Change in gene expression, COL3A1 (profibrotic genes; [5]): −49%
Change in gene expression, MMP2 (profibrotic genes; [5]): −52%
Change in gene expression, MMP9 (profibrotic genes; [5]): −54%
Change in gene expression, MMP14 (profibrotic genes; [5]): −42%
Change in gene expression, TGF-β1 (profibrotic genes; [5]): up to −23%
Change in gene expression, TGF-β2 (profibrotic genes; [5]): ≤ −32%
Change in gene expression, TGF-β3 (profibrotic genes; [5]): ≤ −49%
Change in gene expression, THBS4 (profibrotic genes; [5]): −67%
Change in gene expression, TIMP1 (profibrotic genes; [5]): −17%
Change in gene expression, TIMP2 (profibrotic genes; [5]): −46%
